Where two headings read alike, the source gives them in different places.
Columns and labels:
Candida albicans = test: MIC and Synergy Index (Kull) of two-component compositions; format: cell-based; conditions: for MIC: Candida albicans
Protocol: (§1) A wide range of concentrations were tested against Pseudomonas aeruginosa, Staphylococcus aureus, Escherichia coli, and Candda albicans.
(§2) The lowest concentration of each mixture or single compound which prevents an observable level of growth was determined to be the minimum inhibitory concentration (MIC) value.
(§3) Serial dilutions of each mixture or single compound were prepared. Micro-organisms were inoculated into media: Nutrient Broth (bacteria) or Malt Extract Broth (yeast). The final concentrations of micro-organisms in media was approximately 10^5-6 CFU/ml. The inoculated media was introduced to each of the serial dilutions at a 1:1 ratio, and incubated at 30±1° C. for 24-48 hours.
(§4) The MICs for each mixture was compared with the MIC of each single compound alone.
(§5) In this study the end point is measured by the MIC.

Escherichia coli = test: as above; format: cell-based; conditions: for MIC: Escherichia coli
Protocol: as §1, §2, §3, §4
(§6) Synergy was determined using the Kull equation (F. C. Kull et. al., “Mixtures of Quaternary Ammonium Compounds and Long-chain Fatty Acids as Antifungal Agents”, Appl Microbiol. 1961 November; 9(6): 538-541), which calculates a Synergy Index (SI) according the following equation:
(§7) [formula] • wherein • QA=concentration of compound A in ppm, acting alone produced an end point, • Qa=concentration of compound A in ppm, in the mixture, which produced an end point, • QB=concentration of compound B in ppm, acting alone produced an end point, and • Qb=concentration of compound B in ppm, in the mixture, which produced an end point;
as §5

Pseudomonas aeruginosa = test: as above; format: cell-based; conditions: for MIC: Pseudomonas aeruginosa
Protocol: as §1, §2, §3, §4, §6, §7, §5

Staphylococcus aureus = test: as above; format: cell-based; conditions: for MIC: Staphylococcus aureus
Protocol: as §1, §2, §3, §4, §6, §7, §5

[1] = tested on: Aspergillus brasiliensis ATCC 16404; test: Preservation efficacy test in sterile distilled water, drop plate; format: cell-based; conditions: 7 days, Butyl Levulinate 0 ppm
Protocol: (§8) In the following example, the following test organisms were used: • Pseudomonas aeruginosa ATCC 9027 • Aspergillus brasiliensis ATCC 16404 [table] Mould strain spores were harvested (sterile distilled water+0.05% polysorbate 80) and treated to remove fungal hyphae. Mould strain spores were prepared in diluent (sterile distilled water) to obtain a final concentration of 1.0×10^5 to 1.0×10^5 cfu/ml. [table] […] Each sample was inoculated at t=0 with a known concentration of micro-organism. Each inoculated sample was then mixed until a homogenous mixture was obtained. […] The solution was left for 15 minutes. Subsequent dilutions were prepared by serial dilution of 0.1 ml into 0.9 ml of neutralising broth. Bacteria were serially diluted to 10^−4, Fungi were serially diluted to 10^−3. Each serial dilution was thoroughly mixed and 25 μl drops were aliquoted onto the surface of pre-prepared agar plates. Plates were prepared in sextupicate for each sample dilution. The agar plates were allowed to dry, then inverted and incubated under conditions appropriate for the test microorganisms. CFU/ml was calculated taking into account dilution factors. […] The lower and upper limits for drop plating were only employed on the highest and lowest dilution factor plates.

[2] = tested on: Pseudomonas aeruginosa ATCC 9027; test: as above; format: cell-based; conditions: 7 days, Butyl Levulinate 0 ppm
Protocol: as §8, with “[table] Bacteria” for “[table] Mould strain spores”, “harvested” for “harvested (sterile distilled water+0.05% polysorbate 80)”, “and” for “and treated to remove fungal hyphae. Mould strain spores were”, “of 1.0×10^6” for “of 1.0×10^5”, “to 5.0×10^6” for “to 1.0×10^5”

C. albicans = test: as above; format: cell-based, Candida albicans; conditions: 7 days, pH 7, Butyl Levulinate 0 ppm
Protocol: Yeast strains were harvested and prepared in diluent (sterile distilled water) to obtain a final concentration of 1.0×10^5 to 1.0×10^6 cfu/ml.
Preservation efficacy testing started at Day 0 (t=0). Each sample was inoculated at t=0 with a known concentration of micro-organism. Each inoculated sample was then mixed until a homogenous mixture was obtained. Inoculated samples were stored in the dark at 22.5±2.5° C. throughout the test period.
At the specified contact time of 7 days (t=7), test samples were deactivated by adding a 0.1 ml aliquot of the test sample to 0.9 ml of an appropriate neutralising broth. The solution was left for 15 minutes. Subsequent dilutions were prepared by serial dilution of 0.1 ml into 0.9 ml of neutralising broth. Bacteria were serially diluted to 10^−4, Fungi were serially diluted to 10^−3.
Each serial dilution was thoroughly mixed and 25 μl drops were aliquoted onto the surface of pre-prepared agar plates. Plates were prepared in sextupicate for each sample dilution.
The agar plates were allowed to dry, then inverted and incubated under conditions appropriate for the test microorganisms.
CFU/ml was calculated taking into account dilution factors. Colonies from the incubated plates were enumerated using the lower count limit of <10 CFU/ml and the upper count limit of >330 CFU/ml.
The lower and upper limits for drop plating were only employed on the highest and lowest dilution factor plates.
The test organisms were prepared and the method was performed according to the protocol of Example 1.

[3] = read-out: MIC (ppm) to inhibit growth: DHA
[4] = ethyl levulinate alone, or its concentration in the mixture with Sodium benzoate, read-out: MIC (ppm) to inhibit growth: Ethyl levulinate
[5] = ethyl levulinate alone, or its concentration in the mixture with Sodium Pyrithione
[6] = Lactic Acid alone, or its concentration in the mixture with ethyl levulinate, read-out: MIC (ppm) to inhibit growth: Lactic Acid
[7] = pH 7, Potassium Sorbate 5000 ppm
[8] = pH 7, Potassium Sorbate 10000 ppm
[9] = pH 7, Potassium Sorbate 15000 ppm
[10] = pH 7, Potassium Sorbate 20000 ppm
[11] = pH 7, Potassium Sorbate 25000 ppm
[12] = read-out: MIC (ppm) to inhibit growth: Potassium Sorbate
[13] = pH 7, Sodium Benzoate 10000 ppm
[14] = pH 7, Sodium Benzoate 15000 ppm
[15] = pH 7, Sodium Benzoate 20000 ppm
[16] = pH 7, Sodium Benzoate 25000 ppm
[17] = pH 8, Sodium Benzoate 10000 ppm
[18] = pH 8, Sodium Benzoate 15000 ppm
[19] = pH 8, Sodium Benzoate 20000 ppm
[20] = pH 8, Sodium Benzoate 25000 ppm
[21] = Sodium benzoate alone, or its concentration in the mixture with butyl levulinate
[22] = Sodium benzoate alone, or its concentration in the mixture with ethyl levulinate
[23] = Sodium Pyrithione alone, or its concentration in the mixture with ethyl levulinate
[24] = Sodium pyrithione alone, or its concentration in the mixture with butyl levulinate
[25] = ADBAC alone, or its concentration in the mixture with ethyl levulinate

`O=c1[nH]sc2ccccc12` [BIT, benzisothiazolinone, reference compound] was tested, and the “MIC (ppm) to inhibit growth: BIT” value (Candida albicans; BIT alone, or its concentration in the mixture with butyl levulinate) was 31 ppm.
In the case of `CC(=O)C1C(=O)C=C(C)OC1=O` (stereo not drawn) [DHA, dehydroacetic acid, reference compound], the MIC (Candida albicans; [3]) was 250 µg/mL and the MIC (Escherichia coli; [3]) was 5000 µg/mL.
With `CCOC(=O)CCC(C)=O` [Ethyl levulinate, ethyl levulinate] the MIC (Candida albicans; [4]) was 25000 µg/mL, the “MIC (ppm) to inhibit growth: Ethyl levulinate” value (Candida albicans; ethyl levulinate alone, or its concentration in the mixture with ADBAC) was 25000 ppm and the “MIC (ppm) to inhibit growth: Ethyl levulinate” value (Candida albicans; ethyl levulinate alone, or its concentration in the mixture with Lactic Acid) was 25000 ppm. The “MIC (ppm) to inhibit growth: Ethyl levulinate” value (Candida albicans; ethyl levulinate alone, or its concentration in the mixture with Potassium Sorbate) was 25000 ppm, the “MIC (ppm) to inhibit growth: Ethyl levulinate” value (Candida albicans; [5]) was 25000 ppm and the MIC (Pseudomonas aeruginosa; ethyl levulinate alone, or its concentration in the mixture with ADBAC, read-out: MIC (ppm) to inhibit growth: Ethyl levulinate) was 12500 µg/mL. For the same compound, the “MIC (ppm) to inhibit growth: Ethyl levulinate” value (Pseudomonas aeruginosa; [5]) was 12500 ppm, the MIC (Staphylococcus aureus; ethyl levulinate alone, or its concentration in the mixture with Lactic Acid, read-out: MIC (ppm) to inhibit growth: Ethyl levulinate) was 12500 µg/mL and the MIC (Staphylococcus aureus; ethyl levulinate alone, or its concentration in the mixture with Potassium Sorbate, read-out: MIC (ppm) to inhibit growth: Ethyl levulinate) was 12500 µg/mL. The MIC (Staphylococcus aureus; [4]) was 25000 µg/mL and the MIC (Escherichia coli; [4]) was 25000 µg/mL.
For `CCCCNC(=O)OCC#CI` [IPBC, 3-Iodo-2-propynyl butylcarbamate, reference compound], the Log reduction ([1]; pH 7, IPBC 100 ppm) was 1.21, the Log reduction ([1]; pH 7, IPBC 250 ppm) was 0.77 and the Log reduction ([1]; pH 7, IPBC 500 ppm) was 0.71. It also gave a Log reduction ([1]; pH 7, IPBC 750 ppm) of 0.57 and a Log reduction ([1]; pH 7, IPBC 1000 ppm) of 0.85.
Work on `CC(O)C(=O)O` (stereo not drawn) [Lactic Acid, lactic acid, reference compound] yielded an MIC (Candida albicans; [6]) of 10000 µg/mL, an MIC (Pseudomonas aeruginosa; Lactic Acid alone, or its concentration in the mixture with butyl levulinate, read-out: MIC (ppm) to inhibit growth: Lactic Acid) of 625 µg/mL and an MIC (Staphylococcus aureus; [6]) of 156 µg/mL.
In the case of `C/C=C/C=C/C(=O)[O-].[K+]` [Potassium Sorbate, potassium sorbate, reference compound], the Log reduction [1, 7] was 0.58, the Log reduction [1, 8] was 0.67 and the Log reduction [1, 9] was 0.45. For the same compound, the Log reduction [1, 10] was 0.64, the Log reduction [1, 11] was 0.52 and the MIC (Candida albicans; [12]) was 2500 µg/mL. The “MIC (ppm) to inhibit growth: Potassium Sorbate” value (Candida albicans; Potassium Sorbate alone, or its concentration in the mixture with butyl levulinate) was 2500 ppm, the Log reduction [2, 7] was under 0.03 and the Log reduction [2, 8] was under 0.03. It also gave a Log reduction [2, 9] of under 0.03, a Log reduction [2, 10] of over 4.55 and a Log reduction [2, 11] of over 4.55. The Log reduction ([2]; pH 8, Potassium Sorbate 5000 ppm) was under 0.33, the Log reduction ([2]; pH 8, Potassium Sorbate 10000 ppm) was under 0.33 and the Log reduction ([2]; pH 8, Potassium Sorbate 15000 ppm) was under 0.33. It also gave a Log reduction ([2]; pH 8, Potassium Sorbate 20000 ppm) of under 0.33, a Log reduction ([2]; pH 8, Potassium Sorbate 25000 ppm) of under 0.33 and an MIC (Staphylococcus aureus; [12]) of 156 µg/mL. The Log reduction (C. albicans; Potassium Sorbate 5000 ppm) was 1.01, the Log reduction (C. albicans; Potassium Sorbate 10000 ppm) was 0.72 and the Log reduction (C. albicans; Potassium Sorbate 15000 ppm) was 0.72. For the same compound, the Log reduction (C. albicans; Potassium Sorbate 20000 ppm) was 0.92 and the Log reduction (C. albicans; Potassium Sorbate 25000 ppm) was 0.83.
Compound `O=C([O-])c1ccccc1.[Na+]` [Sodium Benzoate, sodium benzoate, reference compound] has a Log reduction ([1]; pH 7, Sodium Benzoate 5000 ppm) of 2.09, a Log reduction [1, 13] of 2.14 and a Log reduction [1, 14] of 2.20. The Log reduction [1, 15] was 2.33, the Log reduction [1, 16] was 3.11 and the Log reduction ([1]; pH 8, Sodium Benzoate 5000 ppm) was 0.33. For the same compound, the Log reduction [1, 17] was 0.70, the Log reduction [1, 18] was 0.64 and the Log reduction [1, 19] was 0.60. The Log reduction [1, 20] was 0.55, the “MIC (ppm) to inhibit growth: Sodium benzoate” value (Candida albicans; [21]) was 7500 ppm and the “MIC (ppm) to inhibit growth: Sodium benzoate” value (Candida albicans; [22]) was 7500 ppm. It also gave a Log reduction ([2]; pH 7, Sodium Benzoate 5000 ppm) of 1.73, a Log reduction [2, 13] of over 4.90 and a Log reduction [2, 14] of over 4.90. The Log reduction [2, 15] was over 4.90, the Log reduction [2, 16] was over 4.90 and the Log reduction ([2]; pH 8, Sodium Benzoate 5000 ppm) was 1.54. For the same compound, the Log reduction [2, 17] was 1.36, the Log reduction [2, 18] was 1.57 and the Log reduction [2, 19] was 3.20. For the same compound, the Log reduction [2, 20] was over 4.57, the “MIC (ppm) to inhibit growth: Sodium benzoate” value (Staphylococcus aureus; [21]) was 15000 ppm and the “MIC (ppm) to inhibit growth: Sodium benzoate” value (Staphylococcus aureus; [22]) was 15000 ppm. The “MIC (ppm) to inhibit growth: Sodium benzoate” value (Escherichia coli; [21]) was 7500 ppm and the “MIC (ppm) to inhibit growth: Sodium benzoate” value (Escherichia coli; [22]) was 7500 ppm.
For `[Na+].[O-][n+]1ccccc1[S-]` [Sodium Pyrithione, sodium pyrithione, reference compound], the “MIC (ppm) to inhibit growth: Sodium Pyrithione” value (Candida albicans; [23]) was 31 ppm, the “MIC (ppm) to inhibit growth: Sodium Pyrithione” value (Candida albicans; [24]) was 16 ppm and the “MIC (ppm) to inhibit growth: Sodium Pyrithione” value (Pseudomonas aeruginosa; [23]) was 63 ppm. For the same compound, the “MIC (ppm) to inhibit growth: Sodium Pyrithione” value (Pseudomonas aeruginosa; [24]) was 63 ppm.
With “alkyldimethylbenzylammonium chloride [ADBAC]” the “MIC (ppm) to inhibit growth: ADBAC” value (Candida albicans; [25]) was 8 ppm and the “MIC (ppm) to inhibit growth: ADBAC” value (Pseudomonas aeruginosa; [25]) was 16 ppm.
“poly(hexamethylene) biguanide [PHMB, reference compound]” was tested, and the “MIC (ppm) to inhibit growth: PHMB” value (Candida albicans; PHMB alone, or its concentration in the mixture with butyl levulinate) was 313 ppm.
